The test system of series [1] is methicillin-resistant S. aureus standard strain USA300. Description: Neutropenic mouse thigh infection model. The settings on record: neutropenic BALB/c mice, 300 μg i.p. at 2 h postinfection. It is filed as in vivo. As for the experimental part:
Female BALB/c mice were used to construct a neutropenic murine thigh infection model as previously published ([48][–][50]). Briefly, mice (n = 9/group) were rendered neutropenic by consecutive intraperitoneal injections of 150 and 100 mg/kg of body weight cyclophosphamide at 4 and 1 day before bacterial injection ([51]). An S. aureus USA300 inoculum (~1.5 × 10^6 CFU/mL) was prepared by diluting logarithmic phase bacteria with fresh MHB. Each mouse was infected by intramuscular injection of 0.1 mL of the inoculum (~1.5 × 10^5 CFU) into the right thigh muscles. At 2 h postinfection, 0.1 mL of lcCCL28-25 peptide (300 μg) or vancomycin hydrochloride (300 μg, 15 mg/kg) was administered by intraperitoneal injection. The control group was injected with an equal volume of PBS. Untreated control mice were sacrificed at the start of treatment to establish the baseline bacterial burden. Mice in the three treatment groups (PBS, vancomycin, and lcCCL28-25) were sacrificed at 48 h postinfection. Their right thighs were aseptically harvested, placed in sterile saline and homogenized using a Bioprep-6 homogenizer (Allsheng, Hangzhou, China). After being serially diluted to 1:10 in sterile saline, 100-μL amounts of tissue suspensions at various concentrations were plated on LB agar to determine bacterial counts after incubation at 37°C for 24 h.

In series [2] the test system is P. aeruginosa FRD1. The class given is cell-based, Pseudomonas aeruginosa. The settings on record: FRD1, 2 h. The procedure: (§1) The MIC assays were performed as previously described ([43]). Briefly, peptides were plated in a 2-fold dilution series (50 μL/well) of Mueller-Hinton broth (MHB) in Costar 96-well cell culture plates (Corning, NY, USA). Three repeats were set for each concentration. E. coli ATCC 25922, A. hydrophila ATCC 7966, P. aeruginosa PAO1, P. aeruginosa FRD1, S. aureus ATCC 25923, S. agalactiae ATCC 13813, S. pneumoniae ATCC 49619, methicillin-resistant S. aureus ATCC 43300, and methicillin-resistant S. aureus USA300 were cultured in Luria-Bertani (LB) medium, while K. pneumoniae CMCC46117 was cultured in tryptic soy broth (TSB) medium. Incubation was done at 37°C and 150 × g for 12 h. Bacteria were transferred to fresh MHB at a ratio of 1% (vol/vol) and incubated to reach a logarithmic growth phase. Then, 50 μL of a bacterial suspension at 4 × 10^6 CFU/mL was added to each well. […]

The subject of series [3] is Aeromonas hydrophila ATCC 7966. The class given is cell-based. The settings on record: ATCC 7966, 2 h. The procedure:
as §1

For series [4], the system named is Escherichia coli ATCC 25922. It is filed as cell-based. The settings on record: ATCC 25922, 2 h. The procedure: as §1
The test system of series [5] is Klebsiella pneumoniae CMCC46117. The class given is cell-based. The settings on record: CMCC46117, 2 h. As for the experimental part:
as §1

Series [6] has as its system Pseudomonas aeruginosa PAO1. The class given is cell-based. The settings on record: PAO1, 2 h. As for the experimental part: as §1
Series [7] deals with Staphylococcus aureus ATCC 25923. It is filed as cell-based. The settings on record: ATCC 25923, 2 h. As for the experimental part: as §1
Series [8] concerns Streptococcus agalactiae ATCC 13813. It is filed as cell-based. The note with it: ATCC 13813, 2 h. The procedure:
as §1

Series [9] deals with Streptococcus pneumoniae ATCC 49619. The class given is cell-based. The settings on record: ATCC 49619, 2 h. The procedure:
as §1

The subject of series [10] is Methicillin-resistant S. aureus ATCC 43300. It is filed as cell-based, Staphylococcus aureus. The note with it: ATCC 43300, 2 h. The procedure:
as §1

Series [11] has as its system Methicillin-resistant S. aureus USA300. It is filed as cell-based, Staphylococcus aureus. The note with it: USA300, 2 h. As for the experimental part:
as §1

The subject of series [12] is P. aeruginosa FRD1 biofilm. Briefly: Biofilm inhibition assay (crystal violet). It is filed as cell-based, Pseudomonas aeruginosa. The note with it: P. aeruginosa FRD1, 6.25 μg/mL (0.5× MIC), 37°C 24 h, triplicate. As for the experimental part: In vitro static biofilm models have been reported in many studies ([45][–][47]). A Pseudomonas aeruginosa mucoid strain, FRD1, isolated from a cystic fibrosis patient, was used for the biofilm inhibition and eradication assay. The FRD1 strain was shock cultured to logarithmic growth stage at 37°C and 150 × g. After cleaning using PBS and centrifuging thrice, the bacteria were resuspended in MHB medium (with 0.2% glucose) and gradient diluted to an OD600 value of ~0.01.
For the biofilm inhibition assay, 90-μL amounts of bacterial suspensions and 10-μL amounts of increasing concentrations of the peptide were added to a 96-well plate and coincubated at 37°C for 24 h. Then, bacterial biofilms were quantified as follows: (i) planktonic bacteria were removed by washing thrice using PBS, (ii) biofilm bacteria were fixed in 100 μL of 4% paraformaldehyde at room temperature for 15 min and (iii) stained with 100 μL of 0.1% crystal violet for 30 min, (iv) the dye was removed, followed by washing twice using PBS, adding 200 μL of 95% ethanol to each well to dissolve the crystal violet, and finally, (v) absorbance was measured at 590 nm using an EnSpire multimode plate reader (PerkinElmer, Singapore).

Series [13] concerns E. coli ATCC 25922. Description: SYTOX green membrane permeability assay. The class given is cell-based, Escherichia coli. The note with it: E. coli ATCC 25922, 5 μM SYTOX green, read every 1 min. As for the experimental part: The SYTOX green staining assay was performed to assess peptide-associated membrane damage ([47], [52]). E. coli ATCC 25922 and S. aureus ATCC 25923 cells in the mid-logarithmic phase were collected, washed thrice, and resuspended (5 × 10^7 CFU/mL) in buffer B (10 mM Tris-HCl, pH 7.4, at 25°C). The bacterial suspensions were mixed with 5 μM SYTOX green and incubated for 15 min at room temperature in the dark. Then, the mixtures were added to black, clear-bottom 96-well plates at a density of 100 μL/well. After peptide addition, SYTOX green uptake was monitored using an EnSpire multimode plate reader (PerkinElmer, Singapore) with an excitation wavelength of 485 nm and an emission wavelength of 520 nm. Each measurement interval was 1 min, totaling 30 to 60 times. Melittin was used as the positive control, while bovine serum albumin (BSA) was the negative control.

The conditions of series [14]: data not shown.

Values after ≈ are worked out from the molar mass of the structure shown. Where a name gives a salt, the structure may show the parent alone. Residues, ends and D or L forms follow the SMILES beside them. Bounds are passed on as bounds.

We go through 4 compounds from PMC9241943, “LcCCL28-25, Derived from Piscine Chemokine, Exhibits Antimicrobial Activity against Gram-Negative and Gram-Positive Bacteria In Vitro and In Vivo” (Microbiology Spectrum, 2022).

As a reminder, the MIC is the smallest concentration in the dilution series that meets the test's criterion for growth inhibition. A higher MIC goes with weaker potency.

With `CN[C@H](CC(C)C)C(=O)N[C@H]1C(=O)N[C@@H](CC(N)=O)C(=O)N[C@H]2C(=O)N[C@H]3C(=O)N[C@H](C(=O)N[C@H](C(=O)O)c4cc(O)cc(O)c4-c4cc3ccc4O)[C@H](O)c3ccc(c(Cl)c3)Oc3cc2cc(c3O[C@@H]2O[C@H](CO)[C@@H](O)[C@H](O)[C@H]2O[C@H]2C[C@](C)(N)[C@H](O)[C@H](C)O2)Oc2ccc(cc2Cl)[C@H]1O` [vancomycin, vancomycin hydrochloride, reference compound], the “reduction in average bacterial load in thighs versus control group” value in series [1] (S. aureus USA300 i.m., 48 h postinfection) came to 1.30 log10 CFU/g. In addition, the “mice that died after 48 h of infection” value in series [1] (n = 9/group, three died in PBS group) is recorded as “none”.
Consider `CC[C@H](C)[C@H](NC(=O)[C@H](CCC(N)=O)NC(=O)[C@H](CCSC)NC(=O)[C@H](C)NC(=O)[C@@H](NC(=O)CNC(=O)[C@H](CC(C)C)NC(=O)[C@@H](NC(=O)[C@H](CCCCN)NC(=O)[C@H](CCCCN)NC(=O)[C@@H](NC(=O)[C@H](CCCNC(=N)N)NC(=O)[C@@H]1CCCN1C(=O)[C@H](CC(=O)O)NC(=O)[C@H](C)N)C(C)C)C(C)C)C(C)C)C(=O)N[C@@H](CCCNC(=N)N)C(=O)N[C@@H](CCCCN)C(=O)N[C@@H](C)C(=O)N[C@@H](CCC(N)=O)C(=O)N[C@@H](CC(C)C)C(=O)N[C@@H](CCSC)C(=O)N[C@@H](CCCNC(=N)N)C(=O)N[C@@H](CCC(=O)O)C(=O)N[C@@H](CCCCN)C(=O)N[C@@H](CC(C)C)C(=O)N[C@@H](CC(N)=O)C(=O)N[C@@H](CO)C(=O)N[C@H](C(=O)N[C@@H](CCSC)C(=O)N[C@@H](CCCNC(=N)N)C(=O)N[C@@H](CCCNC(=N)N)C(=O)O)[C@@H](C)CC` [omCK11-31] (H-ADPRVKKVLGVAMQIRKAQLMREKLNSIMRR-OH; N-terminus and C-terminus assumed), for which the MIC was 12.50 µg/mL (≈ 3.44 µM) in series [2]; over 50.00 µg/mL in series [3]; 12.50 µg/mL (≈ 3.44 µM) in [4]; 25.00 µg/mL (≈ 6.87 µM) in [5]; 25.00 µg/mL (≈ 6.87 µM) in [6]; 12.50 µg/mL (≈ 3.44 µM) in [7]. The MIC in series [8], in series [9], in [10] and in series [11] was 12.50 µg/mL (≈ 3.44 µM) in each case. Besides, in series [12], the “reduction of biofilm formation” value is ~ 45%. Also, in series [13], the “SYTOX green fluorescence intensity” value is recorded as “fluorescence trends similar to the trends in E. coli cells treated with lcCCL28-25”.
Regarding `CSCC[C@H](NC(=O)[C@H](CCCNC(=N)N)NC(=O)[C@H](CCCCN)NC(=O)[C@H](CC(C)C)NC(=O)[C@H](CCCCN)NC(=O)[C@H](CCCNC(=N)N)NC(=O)[C@H](CCCCN)NC(=O)[C@@H](NC(=O)[C@H](CCCCN)NC(=O)[C@@H]1CCCN1C(=O)[C@H](Cc1c[nH]cn1)NC(=O)[C@H](C)N)C(C)C)C(=O)N[C@@H](CCC(N)=O)C(=O)N[C@@H](CCCNC(=N)N)C(=O)N[C@@H](CCCCN)C(=O)N[C@@H](CCCCN)C(=O)N[C@@H](CC(=O)O)C(=O)NCC(=O)N[C@@H](CCCCN)C(=O)N[C@@H](CCC(N)=O)C(=O)N[C@@H](CCCCN)C(=O)N[C@@H](CCCNC(=N)N)C(=O)N[C@@H](Cc1c[nH]cn1)C(=O)O` [omCCL28-like-23] (H-AHPKVKRKLKRMQRKKDGKQKRH-OH; N-terminus and C-terminus assumed), the MIC is 25.00 µg/mL (≈ 8.67 µM) in series [2]; over 50.00 µg/mL in series [3]; 12.50 µg/mL (≈ 4.34 µM) in series [4]; over 50.00 µg/mL in [5]; 25.00 µg/mL (≈ 8.67 µM) in [6]; 12.50 µg/mL (≈ 4.34 µM) in series [7]. Besides, the minimum inhibitory concentration (MIC) in series [8] turned out to be 12.50 µg/mL (≈ 4.34 µM); in series [9], 25.00 µg/mL (≈ 8.67 µM); in [10] it was 25.00 µg/mL (≈ 8.67 µM); in series [11], 12.50 µg/mL (≈ 4.34 µM). For the same compound, the “SYTOX green fluorescence intensity” value in series [13] is listed as “increased rapidly within 20 min”. Moreover, the “solubility in 50% TFE solution” value in series [14] is “insoluble”.
For `CC[C@H](C)[C@H](NC(=O)[C@H](CCCCN)NC(=O)[C@H](CCSC)NC(=O)[C@H](C)NC(=O)[C@H](CC(C)C)NC(=O)[C@H](Cc1c[nH]cn1)NC(=O)[C@H](CCCNC(=N)N)NC(=O)[C@H](CCCCN)NC(=O)[C@H](CCCCN)NC(=O)[C@H](CCCCN)NC(=O)[C@H](CCSC)NC(=O)[C@H](CC(C)C)NC(=O)[C@H](CC(C)C)NC(=O)[C@H](CC(=O)O)NC(=O)[C@H](CC(C)C)NC(=O)[C@H](Cc1c[nH]cn1)NC(=O)[C@H](CCCCN)NC(=O)[C@H](CCCCN)NC(=O)[C@@H](NC(=O)[C@H](CCCNC(=N)N)NC(=O)[C@@H]1CCCN1C(=O)[C@H](Cc1c[nH]cn1)NC(=O)[C@H](C)N)[C@@H](C)CC)C(=O)N[C@@H](C)C(=O)N[C@@H](C)C(=O)N1CCC[C@H]1C(=O)O` [chCCL27a-26] (H-AHPRIKKHLDLLMKKKRHLAMKIAAP-OH; N-terminus and C-terminus assumed), the minimum inhibitory concentration (MIC) is 25.00 µg/mL (≈ 8.21 µM) in series [2]; over 50.00 µg/mL in series [3]; 25.00 µg/mL (≈ 8.21 µM) in series [4]; over 50.00 µg/mL in [5]; 25.00 µg/mL (≈ 8.21 µM) in [6]; 12.50 µg/mL (≈ 4.1 µM) in series [7]. Moreover, the minimal inhibitory concentration (MIC) in series [8], in series [9], in series [10] and in series [11] was 25.00 µg/mL (≈ 8.21 µM) throughout. Moreover, in [13], the “SYTOX green fluorescence intensity” value was “fluorescence trends similar to the trends in E. coli cells treated with lcCCL28-25”.
